pIC50: −log10 of the molar value.
Assays:
Format in all cases: biochemical
[1] = molecular target: T1, recombinant human TRKA (G595R) (Homo sapiens, UniProt P04629, G595R); test: In vitro activity test on mutant TRKA (G595R) (HTRF KinEASE TK); conditions: 4.5 μM ATP, 30 min
T1 construct: purchased SignalChem
Method: Biological Test Example 2 In Vitro Activity Test on Mutant TRKA (G595R), TRKA (G667C) and TRKC (G623R)
The recombinant human TRKA (G595R), TRKA (G667C) and TRKC (G623R) proteins were purchased from SignalChem. HTRF kinEASE TK kit was purchased from CisbioBioassays. Synergy Neo 2 of Biotek was used to read the plate.
The tested compound was subjected to 4-fold serial dilution to reach a final concentration of 1 μM to 0.004 nM (10 concentrates), duplicates for each concentration; and 1% DMSO was present in the detection reaction.
0.12 ng/μL TRKA (G595R) kinase, 1 μM TK Substrate-biotin polypeptide substrate, 4.5 μM ATP, 1× enzymatic buffer, 5 mM MgCl2, and 1 mm DTT. The detection plate was White Proxiplate384-Plus plate (PerkinElmer), and incubated at room temperature for 30 min, and the assay volume was 10 μL.
(§1) 10 μL of detection reagent was added to the plate (containing 0.125 μM SA-XL665 and 5 μL 1×TK-Antibody) and incubated overnight at room temperature, and Synergy Neo 2 was used to read the plate.
(§2) The value of 665/620 Ratio minus the value of negative control wells without enzyme, then the obtained value was converted according to the following formula into inhibition rate (%)=(1−Ratiotest/Ratiomax)×100%. Ratiomax was a positive control without tested compound, and Ratiotest was the value of each concentration of different compounds. IC50 (nM) data was obtained by 4 parameter curve fitting (see Table 1).

Recombinant human TRKB = molecular target: T2, Recombinant human TRKB (Homo sapiens, UniProt Q16620); test: In vitro activity test on TRKB kinase (HTRF KinEASE TK); conditions: 4.77 μM ATP, 50 min
T2 construct: purchased Carna Biosciences
T2 sequence (Q16620 32-822): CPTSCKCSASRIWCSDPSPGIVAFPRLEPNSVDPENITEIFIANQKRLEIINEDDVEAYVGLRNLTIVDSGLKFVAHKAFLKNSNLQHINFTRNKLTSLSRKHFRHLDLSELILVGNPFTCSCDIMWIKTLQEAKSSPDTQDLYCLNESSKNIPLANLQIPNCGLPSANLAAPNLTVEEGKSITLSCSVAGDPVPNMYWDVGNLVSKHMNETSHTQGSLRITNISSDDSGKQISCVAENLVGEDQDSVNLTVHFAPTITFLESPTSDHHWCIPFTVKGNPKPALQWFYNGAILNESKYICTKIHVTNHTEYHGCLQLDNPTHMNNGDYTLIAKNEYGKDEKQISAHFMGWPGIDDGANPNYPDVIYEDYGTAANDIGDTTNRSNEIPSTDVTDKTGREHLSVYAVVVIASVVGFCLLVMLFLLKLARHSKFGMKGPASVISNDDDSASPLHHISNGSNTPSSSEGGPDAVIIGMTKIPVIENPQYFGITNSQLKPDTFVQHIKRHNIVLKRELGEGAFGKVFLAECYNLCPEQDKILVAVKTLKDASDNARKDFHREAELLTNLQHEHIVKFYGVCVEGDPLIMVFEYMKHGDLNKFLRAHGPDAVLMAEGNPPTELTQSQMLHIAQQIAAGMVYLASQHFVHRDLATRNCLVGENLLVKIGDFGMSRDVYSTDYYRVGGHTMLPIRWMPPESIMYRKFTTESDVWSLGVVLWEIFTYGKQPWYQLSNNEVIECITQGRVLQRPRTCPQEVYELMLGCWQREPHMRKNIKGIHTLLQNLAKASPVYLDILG
Method: (§3) Biological Test Example 1 In Vitro Activity Test on TRKA, TRKB, TRKC Kinase
(§4) Recombinant human TRKA, TRKB, TRKC proteins were purchased from Carna Biosciences. HTRF KinEASE TK kit was purchased from Cisbio Bioassays. Synergy Neo 2 of Biotek was used to read the plate.
(§5) The tested compound was subjected to 3-fold serial dilution to reach a final concentration of 1 μM to 0.05 nM (10 concentrations), duplicates for each concentration; and the DMSO concentration in the detection reaction was 1%.
0.037 ng/μL TRKB protein kinase, 1 μM TK Substrate-biotin polypeptide substrate, 4.77 μM ATP, 1× enzymatic buffer, 5 mM MgCl2, and 1 mM DTT. The detection plate was White Proxiplate 384-Plus plate (PerkinElmer), and incubated at room temperature for 50 min, and the assay volume was 10 μL.
as §1
as §2, with “The” for “The value of”, “Ratio” for “Ratio minus the value of negative control wells without enzyme, then the obtained value”

Recombinant human TRKA = molecular target: T3, Recombinant human TRKA (Homo sapiens, UniProt P04629); test: In vitro activity test on TRKA kinase (HTRF KinEASE TK); conditions: 14.68 μM ATP, 40 min
T3 construct: purchased Carna Biosciences
T3 sequence (P04629 33-796): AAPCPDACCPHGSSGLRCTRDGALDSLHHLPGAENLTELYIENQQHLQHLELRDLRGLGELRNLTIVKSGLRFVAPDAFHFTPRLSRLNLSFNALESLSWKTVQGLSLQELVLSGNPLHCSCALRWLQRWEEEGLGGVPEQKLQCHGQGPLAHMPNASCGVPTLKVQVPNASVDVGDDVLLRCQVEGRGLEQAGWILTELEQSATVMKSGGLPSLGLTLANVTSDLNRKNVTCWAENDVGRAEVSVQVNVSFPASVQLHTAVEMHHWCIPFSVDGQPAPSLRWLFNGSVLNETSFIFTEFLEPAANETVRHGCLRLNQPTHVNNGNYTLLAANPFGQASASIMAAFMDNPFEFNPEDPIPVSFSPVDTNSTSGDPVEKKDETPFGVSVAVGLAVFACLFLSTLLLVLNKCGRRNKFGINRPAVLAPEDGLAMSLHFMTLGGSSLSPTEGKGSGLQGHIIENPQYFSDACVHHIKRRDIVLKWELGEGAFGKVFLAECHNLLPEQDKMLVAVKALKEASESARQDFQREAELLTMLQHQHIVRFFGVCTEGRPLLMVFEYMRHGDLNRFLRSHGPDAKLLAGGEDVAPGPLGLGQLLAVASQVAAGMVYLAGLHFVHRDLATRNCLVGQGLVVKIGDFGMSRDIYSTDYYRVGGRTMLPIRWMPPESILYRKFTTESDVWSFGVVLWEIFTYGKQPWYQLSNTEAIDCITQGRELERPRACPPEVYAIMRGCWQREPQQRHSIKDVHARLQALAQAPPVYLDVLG
Method: as §3, §4, §5
0.2 ng/μL TRKA protein kinase, 1 μM TK Substrate-biotin polypeptide substrate, 14.68 μM ATP, 1× enzymatic buffer, 5 mM MgCl2, and 1 mM DTT. The detection plate was White Proxiplate384-Plus plate (PerkinElmer), and incubated at room temperature for 40 min, and the assay volume was 10 μL.
as §1
as §2, with “The” for “The value of”, “Ratio” for “Ratio minus the value of negative control wells without enzyme, then the obtained value”

Recombinant human TRKC = molecular target: T4, Recombinant human TRKC (Homo sapiens, UniProt Q16288); test: In vitro activity test on TRKC kinase (HTRF KinEASE TK); conditions: 25.64 μM ATP, 40 min
T4 construct: purchased Carna Biosciences
T4 sequence (Q16288 32-839): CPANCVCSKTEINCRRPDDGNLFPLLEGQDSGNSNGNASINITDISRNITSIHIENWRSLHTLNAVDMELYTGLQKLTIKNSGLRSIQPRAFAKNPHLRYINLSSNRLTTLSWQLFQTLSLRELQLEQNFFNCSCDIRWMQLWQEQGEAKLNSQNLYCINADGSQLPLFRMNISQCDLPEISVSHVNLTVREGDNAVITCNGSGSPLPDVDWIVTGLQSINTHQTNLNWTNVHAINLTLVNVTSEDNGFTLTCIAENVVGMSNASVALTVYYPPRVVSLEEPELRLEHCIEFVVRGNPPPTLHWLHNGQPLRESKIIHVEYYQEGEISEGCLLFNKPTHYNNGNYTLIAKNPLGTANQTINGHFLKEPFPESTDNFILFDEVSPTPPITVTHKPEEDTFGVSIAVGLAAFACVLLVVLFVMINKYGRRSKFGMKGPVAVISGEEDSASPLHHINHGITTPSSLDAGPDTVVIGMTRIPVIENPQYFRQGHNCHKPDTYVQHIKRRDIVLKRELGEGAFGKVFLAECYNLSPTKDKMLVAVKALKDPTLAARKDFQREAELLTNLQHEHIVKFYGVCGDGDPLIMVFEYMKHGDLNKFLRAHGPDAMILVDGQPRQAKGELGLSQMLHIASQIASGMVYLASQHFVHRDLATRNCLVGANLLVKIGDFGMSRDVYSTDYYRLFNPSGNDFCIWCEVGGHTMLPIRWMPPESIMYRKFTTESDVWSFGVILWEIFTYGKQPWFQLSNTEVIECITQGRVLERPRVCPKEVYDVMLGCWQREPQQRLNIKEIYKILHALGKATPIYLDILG
Method: as §3, §4, §5
0.037 ng/μL TRKC protein kinase, 1 μM TK Substrate-biotin polypeptide substrate, 25.64 μM ATP, 1× enzymatic buffer, 5 mM MgCl2, and 1 mM DTT. The detection plate was White Proxiplate 384-Plus plate (PerkinElmer), and incubated at room temperature for 40 min, and the assay volume was 10 μL.
as §1
as §2, with “The” for “The value of”, “Ratio” for “Ratio minus the value of negative control wells without enzyme, then the obtained value”

T1 sequence (P04629 33-796 G595R): as the sequence (P04629 33-796) above, with G563R counted along it

| Structure (SMILES) | pIC50 [1] | pIC50 (Recombinant human TRKB) | pIC50 (Recombinant human TRKA) | pIC50 (Recombinant human TRKC) |
| --- | --- | --- | --- | --- |
| Fc1cnc(Cl)c([C@H]2CCCN2c2ccc3ncc(F)c(-c4cnn(C5CCNCC5)c4)c3n2)c1 [Example 90, (R)-2-(2-(2-Chloro-5-fluoropyridin-3-yl)pyrrolidin-1-yl)-7-fluoro-8-(1-(piperidin-4-yl)-1H-pyrazol-4-yl)-1,5-naphthyridine] | > 9.00 | > 8.00 | > 9.00 | > 8.00 |
| OC1CCN(c2nc(-c3c(F)cnc4ccc(N5C[C@@H](F)C[C@@H]5c5cc(F)ccc5F)nc34)no2)CC1 [Example 84, 1-(3-(6-((2R,4S)-2-(2,5-difluorophenyl)-4-fluoropyrrolidin-1-yl)-3-fluoro-1,5-naphthyridin-4-yl)-1,2,4-oxadiazol-5-yl)piperidin-4-ol] | – | > 8.00 | > 9.00 | > 9.00 |
| Fc1ccc(F)c([C@H]2C[C@H](F)CN2c2ccc3ncc(Cl)c(-c4cnn([C@H]5CCCNC5)c4)c3n2)c1 [Example 55, 7-chloro-2-((2R,4S)-2-(2,5-difluorophenyl)-4-fluoropyrrolidin-1-yl)-8-(1-((S)-piperidin-3-yl)-1H-pyrazol-4-yl)-1,5-naphthyridine] | – | > 6.30 | > 8.00 | > 6.30 |
| Fc1ccc(F)c([C@H]2C[C@H](F)CN2c2ccc3ncc(Cl)c(-c4cnc(N5CCNCC5)s4)c3n2)c1 [Example 60, 5-(3-Chloro-6-((2R,4S)-2-(2,5-difluorophenyl)-4-fluoropyrrolidin-1-yl)-1,5-naphthyridin-4-yl)-2-(piperazin-4-yl)thiazole] | – | > 8.00 | > 9.00 | > 9.00 |
| OC1CCN(c2nc(-c3ncnc4ccc(N5C[C@@H](F)C[C@@H]5c5cc(F)ccc5F)nc34)no2)CC1 [Example 80, 1-(3-(6-((2R,4S)-2-(2,5-difluorophenyl)-4-fluoropyrrolidin-1-yl)pyrido[3,2-d]pyrimidin-4-yl)-1,2,4-oxadiazol-5-yl)piperidin-4-ol] | > 8.00 | > 8.00 | > 9.00 | > 8.00 |
| O=C(Nc1ccnc2ccc(N3CCC[C@@H]3c3cc(F)ccc3F)nc12)c1cnc(N2CC[C@H](O)C2)nc1 [Example 8, N-(6-((R)-2-(2,5-difluorophenyl)pyrrolidin-1-yl)-1,5-naphthyridin-4-yl)-2-((S)-3-hydroxypyrrolidin-1-yl)pyrimidin-5-carboxamide] | – | > 9.00 | > 8.00 | > 8.00 |
| OCCNc1ccnc2ccc(N3CCC[C@@H]3c3cc(F)ccc3F)nc12 [Example 6, (R)-2-((6-(2-(2,5-Difluorophenyl)pyrrolidin-1-yl)-1,5-naphthyridin-4-yl)amino)ethan-1-ol] | – | > 6.30 | > 7.00 | > 6.30 |
| O=c1n(-c2ncnc3ccc(N4C[C@@H](F)C[C@@H]4c4cc(F)ccc4F)nc23)ccn1C1CCNCC1 [Example 96, 1-(6-((2R,4S)-2-(2,5-difluorophenyl)-4-fluoropyrrolidin-1-yl)pyrido[3,2-d]pyrimidin-4-yl)-3-(piperidin-4-yl)-1,3-dihydro-2H-imidazol-2-one] | > 8.00 | > 8.00 | > 9.00 | > 8.00 |
| Fc1ccc(F)c([C@H]2C[C@H](F)CN2c2ccc3nncc(-c4cnn(C5CCNCC5)c4)c3n2)c1 [Example 64, 6-((2R,4S)-2-(2,5-difluorophenyl)-4-fluoropyrrolidin-1-yl)-4-(1-(piperidin-4-yl)-1H-pyrazol-4-yl)pyrido[3,2-c]pyridazine] | – | – | > 9.00 | – |
| O[C@H]1CCN(c2ccnc3ccc(N4CCC[C@@H]4c4cc(F)ccc4F)nc23)C1 [Example 5, (S)-1-(6-((R)-2-(2,5-difluorophenyl)pyrrolidin-1-yl)-1,5-naphthyridin-4-yl)pyrrolidin-3-ol] | – | > 6.30 | > 7.00 | > 6.82 |

Results, then the molecule that gave them:

| pIC50 [1] | pIC50 (Recombinant human TRKB) | pIC50 (Recombinant human TRKA) | pIC50 (Recombinant human TRKC) | Structure (SMILES) |
| --- | --- | --- | --- | --- |
| > 8.00 | > 9.00 | > 9.00 | > 9.00 | CC1(O)CCN(c2ncc(-c3ncnc4ccc(N5C[C@@H](F)C[C@@H]5c5cc(F)ccc5F)nc34)cn2)C1 (stereo partly drawn) [Example 85, 1-(5-(6-((2R,4S)-2-(2,5-difluorophenyl)-4-fluoropyrrolidin-1-yl)pyrido[3,2-d]pyrimidine-4-yl)pyrimidin-2-yl)-3-methylpyrrolidin-3-ol] |
| – | > 6.30 | > 6.82 | > 6.30 | O[C@@H]1CCN(c2ccnc3ccc(N4CCC[C@@H]4c4cc(F)ccc4F)nc23)C1 [Example 3, (R)-1-(6-((R)-2-(2,5-difluorophenyl)pyrrolidin-1-yl)-1,5-naphthyridin-4-yl)pyrrolidin-3-ol] |
| > 9.00 | > 9.00 | > 9.00 | > 9.00 | O=C(O)[C@H]1CCN(c2ncc(-c3ncnc4ccc(N5C[C@@H](F)C[C@@H]5c5cc(F)ccc5F)nc34)cn2)C1 [Example 87, (S)-1-(5-(6-((2R,4S)-2-(2,5-difluorophenyl)-4-fluoropyrrolidin-1-yl)pyrido[3,2-d]primidin-4-yl)pyrimidin-2-yl)pyrrolidin-3-carboxylic acid] |
| – | > 6.30 | > 8.00 | > 6.30 | O=C1CC(n2cc(-c3ccnc4ccc(N5C[C@@H](F)C[C@@H]5c5cc(F)ccc5F)nc34)cn2)CCN1 (stereo partly drawn) [Example 19, 4-(4-(6-((2R,4S)-2-(2,5-difluorophenyl)-4-fluoropyrrolidin-1-yl)-1,5-naphthyridin-4-yl)-1H-pyrazol-1-yl)piperidin-2-one] |
| – | – | > 9.00 | – | O=C(Nc1c(Cl)cnc2ccc(N3C[C@@H](F)C[C@@H]3c3cc(F)ccc3F)nc12)C1CCNCC1 [Example 62, N-(3-Chloro-6-((2R,4S)-2-(2,5-difluorophenyl)-4-fluoropyrrolidin-1-yl)-1,5-naphthyridin-4-yl) piperidin-4-carboxamide] |
| – | > 8.00 | > 8.00 | > 8.00 | CN(C)c1ccnc2ccc(N3CCC[C@@H]3c3cc(F)ccc3F)nc12 [Example 4, (R)-6-(2-(2,5-difluorophenyl)pyrrolidin-1-yl)-N,N-dimethyl-1,5-naphthyridin-4-amine] |
| > 9.00 | > 8.00 | > 9.00 | > 8.00 | Fc1ccc(Cl)c([C@H]2CCCN2c2ccc3ncc(F)c(-c4cnn(C5CCNCC5)c4)c3n2)c1 [Example 89, (R)-2-(2-(2-Chloro-5-fluorophenyl)pyrrolidin-1-yl)-7-fluoro-8-(1-(piperidin-4-yl)-1H-pyrazol-4-yl)-1,5-naphthyridine] |
| > 8.00 | > 9.00 | > 9.00 | > 9.00 | Fc1ccc(F)c([C@H]2C[C@H](F)CN2c2ccc3ncnc(-c4cnc(C5CCNCC5)nc4)c3n2)c1 [Example 91, 6-((2R,4S)-2-(2,5-Difluorophenyl)-4-fluoropyrrolidin-1-yl)-4-(2-(piperidin-4-yl)pyrimidin-5-yl)pyrido[3,2-d]pyrimidine] |
| > 8.00 | > 8.00 | > 9.00 | > 8.00 | Fc1ccc(F)c([C@H]2C[C@H](F)CN2c2ncc3ncnc(-c4cnn(C5CCNCC5)c4)c3n2)c1 [Example 76, 2-((2R,4S)-2-(2,5-difluorophenyl)-4-fluoropyrrolidin-1-yl)-8-(1-(piperidin-4-yl)-1H-pyrazol-4-yl)pyrimido[5,4-d]pyrimidine] |
| – | > 7.30 | > 7.30 | > 7.30 | COc1ccc(CNc2ccnc3ccc(N4CCC[C@@H]4c4cc(F)ccc4F)nc23)cc1 [Example 9, (R)-6-(2-(2,5-Difluorophenyl)pyrrolidin-1-yl)-N-(4-methoxybenzyl)-1,5-naphthyridin-4-amine] |

— US20220017512A1 (SHANGHAI ENNOVABIO PHARMACEUTICALS CO., LTD., priority 2018, published 2022)
